biological target: T1, human CRHR2-alpha (Homo sapiens, UniProt Q13324); experiment: cAMP functional assay for human CRHR2 (LANCE Ultra cAMP, TR-FRET); format: cell-based; details: CHO-K1 cells expressing human CRHR2-alpha, agonist human urocortin2 at EC80, cAMP; read-out: IC50 against CRHR2
T1 sequence (Q13324 1-411): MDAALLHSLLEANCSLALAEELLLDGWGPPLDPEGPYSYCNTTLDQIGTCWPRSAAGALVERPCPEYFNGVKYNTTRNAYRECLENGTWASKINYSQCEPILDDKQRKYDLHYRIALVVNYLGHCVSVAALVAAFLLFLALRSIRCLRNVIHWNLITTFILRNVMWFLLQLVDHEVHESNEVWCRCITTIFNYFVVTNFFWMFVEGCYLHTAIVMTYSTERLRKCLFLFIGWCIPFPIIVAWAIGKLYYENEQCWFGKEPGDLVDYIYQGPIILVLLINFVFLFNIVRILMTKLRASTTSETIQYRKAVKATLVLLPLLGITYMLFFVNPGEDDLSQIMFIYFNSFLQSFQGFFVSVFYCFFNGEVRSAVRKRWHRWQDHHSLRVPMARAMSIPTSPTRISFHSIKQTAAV
In short: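 Inhibition of agonist-driven cAMP was assessed in recombinant CHO-K1 cells at 25° C, using 30 min compound pretreatment and 30 min stimulation with EC80 human urocortin2 (CRHR2) or CRF (CRHR1). IC50 came from dose-response fitting.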

IC50 [nM] | Structure (SMILES)
< 300 | Cc1ncc(Cl)cc1C(=O)N[C@H]1CC[C@H](Cn2c(=O)n(-c3ccc(C(=O)NC4COC4)cc3)c3ccccc32)CC1 [Example 130, 5-chloro-2-methyl-N-((1r,4r)-4-((3-(4-(oxetan-3-ylcarbamoyl)phenyl)-2-oxo-2,3-dihydro-1H-benzo[d]imidazol-1-yl)methyl)cyclohexyl)nicotinamide]
< 300 | O=C(N[C@H]1CC[C@H](Cn2c(=O)n(-c3ccc(N4CCC4=O)nc3)c3ccccc32)CC1)c1cc(Cl)cnc1C(F)F [Example 501, 5-chloro-2-(difluoromethyl)-N-((1r,4r)-4-((2-oxo-3-(6-(2-oxoazetidin-1-yl)pyridin-3-yl)-2,3-dihydro-1H-benzo [d]imidazol-1-yl)methyl)cyclo-hexyl)nicotinamide]
< 300 | Cc1ncc(Cl)cc1C(=O)N[C@H]1CC[C@H](Cn2c(=O)n(-c3ccc(-n4cccn4)cc3)c3ccccc32)CC1 [Example 471, N-((1r,4r)-4-((3-(4-(1H-pyrazol-1-yl)phenyl)-2-oxo-2,3-dihydro-1H-benzo[d]imidazol-1-yl)methyl)cyclohexyl)-5-chloro-2-methylnicotinamide]
< 300 | CCn1nnc2cc(-n3c(=O)n(C[C@H]4CC[C@H](NC(=O)c5cc(Cl)cnc5C)CC4)c4ccccc43)ccc21 [Example 304, 5-chloro-N-((1r,4r)-4-((3-(1-ethyl-1H-benzo[d][1,2,3]triazol-5-yl)-2-oxo-2,3-dihydro-1H-benzo[d]imidazol-1-yl)methyl)cyclo-hexyl)-2-methylnicotinamide]
< 300 | Cc1ncc(Cl)cc1C(=O)N[C@H]1CC[C@H](Cn2c(=O)n(-c3cnc4c(c3)OCCN4C)c3ccccc32)CC1 [Example 160, 5-chloro-2-methyl-N-((1r,4r)-4-((3-(4-methyl-3,4-dihydro-2H-pyrido[3,2-b][1,4]oxazin-7-yl)-2-oxo-2,3-dihydro-1H-benzo [d]imidazol-1-yl)methyl)cyclo-hexyl)nicotinamide]
< 300 | Cc1ncc(Cl)cc1C(=O)N[C@H]1CC[C@H](Cn2c(=O)n(-c3ccc(-c4ncco4)cc3)c3ccccc32)CC1 [Example 451, 5-chloro-2-methyl-N-((1r,4r)-4-((3-(4-(oxazol-2-yl)phenyl)-2-oxo-2,3-dihydro-1H-benzo [d]imidazol-1-yl)methyl)cyclo-hexyl)nicotinamide]
< 300 | Cc1ncc(Cl)cc1C(=O)N[C@H]1CC[C@H](Cn2c(=O)n(-c3ccccc3F)c3ccccc32)CC1 [Example 33, 5-chloro-N-((1r,4r)-4-((3-(2-fluorophenyl)-2-oxo-2,3-dihydro-1H-benzo[d]imidazol-1-yl)methyl)cyclohexyl)-2-methylnicotinamide]
< 300 | Cc1ncc(Cl)cc1C(=O)N[C@H]1CC[C@H](Cn2c(=O)n(-c3ccc(-c4cnco4)cc3)c3ccccc32)CC1 [Example 450, 5-chloro-2-methyl-N-((1r,4r)-4-((3-(4-(oxazol-5-yl)phenyl)-2-oxo-2,3-dihydro-1H-benzo [d]imidazol-1-yl)methyl)cyclo-hexyl)nicotinamide]
< 300 | O=C(N[C@H]1CC[C@H](Cn2c(=O)n(-c3cccc(N4CCOCC4)c3)c3ccccc32)CC1)c1cc(Cl)cnc1C(F)F [Example 566, 5-chloro-2-(difluoromethyl)-N-((1r,4r)-4-((3-(3-morpholinophenyl)-2-oxo-2,3-dihydro-1H-benzo[d]imidazol-1-yl)methyl)cyclo-hexyl)nicotinamide]
< 300 | CNc1cc(-n2c(=O)n(C[C@H]3CC[C@H](NC(=O)c4cc(Cl)cnc4C(F)(F)F)CC3)c3ccccc32)ccn1 [Example 665, 5-chloro-N-((1r,4r)-4-((3-(2-(methylamino)pyridin-4-yl)-2-oxo-2,3-dihydro-1H-benzo[d]imidazol-1-yl)methyl)cyclohexyl)-2-(trifluoromethyl)nicotinamide]
< 300 | O=C(N[C@H]1CC[C@H](Cn2c(=O)n(-c3ccc(OCCO)nc3)c3ccc(F)cc32)CC1)c1cc(Cl)cnc1C(F)F [Example 712, 5-chloro-2-(difluoromethyl)-N-((1r,4r)-4-((6-fluoro-3-(6-(2-hydroxyethoxy)pyridin-3-yl)-2-oxo-2,3-dihydro-1H-benzo[d]imidazol-1-yl)methyl)cyclohexyl)nicotinamide]
< 300 | Cc1ncc(Cl)cc1C(=O)N[C@H]1CC[C@H](Cn2c(=O)n(-c3ccc(N4CCCC4=O)nc3)c3ccccc32)CC1 [Example 111, 5-chloro-2-methyl-N-((1r,4r)-4-((2-oxo-3-(6-(2-oxopyrrolidin-1-yl)pyridin-3-yl)-2,3-dihydro-1H-benzo[d]imidazol-1-yl)methyl)cyclohexyl)nicotinamide]
< 300 | O=C(N[C@H]1CC[C@H](Cn2c(=O)n(-c3ccc4ncccc4c3)c3ccccc32)CC1)c1cc(Cl)cnc1C(F)(F)F [Example 351, 5-chloro-N-((1r,4r)-4-((2-oxo-3-(quinolin-6-yl)-2,3-dihydro-1H-benzo[d]imidazol-1-yl)methyl)cyclo-hexyl)-2-(trifluoromethyl) nicotinamide]
< 300 | Cc1ncc(Cl)cc1C(=O)N[C@H]1CC[C@H](Cn2c(=O)n(-c3ccc(-c4ccc(N)nc4)nc3)c3ccccc32)CC1 [Example 216]
< 300 | C[C@@H](Oc1ccc(-n2c(=O)n(C[C@H]3CC[C@H](NC(=O)c4cc(Cl)cnc4C(F)F)CC3)c3ccccc32)cn1)C(N)=O [Example 504, N-((1R,4r)-4-((3-(6-(((R)-1-amino-1-oxopropan-2-yl)oxy)pyridin-3-yl)-2-oxo-2,3-dihydro-1H-benzo[d]imidazol-1-yl)methyl)cyclohexyl)-5-chloro-2-(difluoromethyl) nicotinamide]
< 300 | Cc1n[nH]c2ccc(-n3c(=O)n(C[C@H]4CC[C@H](NC(=O)c5cc(Cl)cnc5C(F)F)CC4)c4cccnc43)cc12 [Example 576, 5-chloro-2-(difluoromethyl)-N-((1r,4r)-4-((3-(3-methyl-1H-indazol-5-yl)-2-oxo-2,3-dihydro-1H-imidazo[4,5-b]pyridin-1-yl)methyl)cyclo-hexyl)nicotinamide]
< 300 | Cc1ncc(Cl)cc1C(=O)N[C@H]1CC[C@H](Cn2c(=O)n(CC(=O)c3ccc(C#N)cc3)c3ccccc32)CC1 [Example 13, 5-chloro-N-((1r,4r)-4-((3-(2-(4-cyanophenyl)-2-oxoethyl)-2-oxo-2,3-dihydro-1H-benzo[d]imidazol-1-yl)methyl)cyclohexyl)-2-methylnicotinamide]
< 300 | CNC(=O)c1ccc(-n2c(=O)n(C[C@H]3CC[C@H](NC(=O)c4cc(Cl)cnc4C4CC4)CC3)c3ccccc32)cn1 [Example 317, 5-(3-(((1r,4r)-4-(5-chloro-2-cyclopropylnicotinamido)cyclohexyl)methyl)-2-oxo-2,3-dihydro-1H-benzo[d]imidazol-1-yl)-N-methyl-picolinamide]
< 300 | Cc1ccc(-n2c(=O)n(C[C@H]3CC[C@H](NC(=O)c4cc(Cl)cnc4C)CC3)c3ccccc32)cc1CO [Example 127, 5-chloro-N-((1r,4r)-4-((3-(3-(hydroxymethyl)-4-methylphenyl)-2-oxo-2,3-dihydro-1H-benzo[d]imidazol-1-yl)methyl)cyclo-hexyl)-2-methylnicotinamide]
< 300 | COCCNc1ccc(-n2c(=O)n(C[C@H]3CC[C@H](NC(=O)c4cc(Cl)cnc4C(F)F)CC3)c3ccccc32)cn1 [Example 572, 5-chloro-2-(difluoromethyl)-N-((1r,4r)-4-((3-(6-((2-methoxyethyl)amino)pyridin-3-yl)-2-oxo-2,3-dihydro-1H-benzo[d]imidazol-1-yl)methyl)cyclohexyl)nicotinamide]
< 300 | Cc1ncc(Cl)cc1C(=O)N[C@H]1CC[C@H](Cn2c(=O)n(Cc3cccc(C#N)c3)c3ccccc32)CC1 [Example 242, 5-chloro-N-((1r,4r)-4-((3-(3-cyanobenzyl)-2-oxo-2,3-dihydro-1H-benzo[d]imidazol-1-yl)methyl)cyclohexyl)-2-methylnicotinamide]
< 300 | Cc1ncc(Cl)cc1C(=O)N[C@H]1CC[C@H](Cn2c(=O)n(-c3ccc(OC[C@@H](C)O)nc3)c3ccccc32)CC1 [Example 438, 5-chloro-N-((1R,4r)-4-((3-(6-((R)-2-hydroxypropoxy)pyridin-3-yl)-2-oxo-2,3-dihydro-1H-benzo[d]imidazol-1-yl)methyl)cyclohexyl)-2-methylnicotinamide]
< 300 | Cc1ncc(Cl)cc1C(=O)N[C@H]1CC[C@H](Cn2c(=O)n(-c3ccc4[nH]nc(-c5ccccc5)c4c3)c3ccccc32)CC1 [Example 348, 5-chloro-2-methyl-N-((1r,4r)-4-((2-oxo-3-(3-phenyl-1H-indazol-5-yl)-2,3-dihydro-1H-benzo[d]imidazol-1-yl)methyl)cyclohexyl)nicotinamide]
< 300 | O=C(N[C@H]1CC[C@H](Cn2c(=O)n(-c3ccc4ncccc4c3)c3ccccc32)CC1)c1cc(Cl)cnc1C(F)F [Example 392, 5-chloro-2-(difluoromethyl)-N-((1r,4r)-4-((2-oxo-3-(quinolin-6-yl)-2,3-dihydro-1H-benzo[d]imidazol-1-yl)methyl)cyclohexyl)nicotinamide]
< 300 | NC(=O)Nc1ccc(-n2c(=O)n(C[C@H]3CC[C@H](NC(=O)c4cc(Cl)cnc4C(F)F)CC3)c3ccccc32)cn1 [Example 658, 5-chloro-2-(difluoromethyl)-N-((1r,4r)-4-((2-oxo-3-(6-ureidopyridin-3-yl)-2,3-dihydro-1H-benzo[d]imidazol-1-yl)methyl)cyclohexyl)nicotinamide]
